Reference: PubChem BioAssay (NCI)
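A five-concentration, 48-hour dose response in 96-well plates underlies each endpoint, interpolated linearly between surrounding concentrations. Here, GI50 denotes the concentration required for 50% inhibition of growth. TGI: concentration producing complete growth inhibition.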

Key:
Experiment in all cases: NCI tumour cell line growth inhibition, 48 h
[1] = system: MOLT-4 leukemia
[2] = system: CCRF-CEM leukemia
[3] = system: 786-0 renal
[4] = system: SF-295 CNS
[5] = system: PC-3 prostate
[6] = system: TK-10 renal
[7] = system: NCI-H460 lung
[8] = system: A549 NSCLC
[9] = system: SK-OV-3 ovarian
[10] = system: SK-MEL-5 melanoma

| SMILES | GI50 [1] [µM] | TGI [1] [µM] | GI50 [2] [µM] | TGI [2] [µM] | GI50 [3] [µM] | TGI [3] [µM] | GI50 [4] [µM] | TGI [4] [µM] | GI50 [5] [µM] | TGI [5] [µM] | GI50 [6] [µM] | TGI [6] [µM] | GI50 [7] [µM] | TGI [7] [µM] | GI50 [8] [µM] | TGI [8] [µM] | GI50 [9] [µM] | TGI [9] [µM] | GI50 [10] [µM] | TGI [10] [µM] |
| --- | --- | --- | --- | --- | --- | --- | --- | --- | --- | --- | --- | --- | --- | --- | --- | --- | --- | --- | --- | --- |
| C=C1C(=O)O[C@H]2[C@H]1CC/C(COC(=O)NCCc1c[nH]c3ccc(OC)cc13)=C\CC[C@@]1(C)O[C@@H]21 | 2.22 | 5.88 | 0.64 | 4.36 | 1.46 | 3.47 | 10.3 | 22.2 | 1.99 | 4.6 | 1.61 | 3.11 | 6.49 | 25.2 | 4.58 | 18.4 | 14.1 | 27.2 | 3.13 | 10.6 |
| COc1ccccc1C#Cc1ccccc1C#CCCCCCC#Cc1ccccc1C#Cc1ccccc1OC | > 100 | > 100 | 65.4 | > 100 | > 100 | > 100 | > 100 | > 100 | > 100 | > 100 | > 100 | > 100 | > 100 | > 100 | > 100 | > 100 | > 100 | > 100 | > 100 | > 100 |
| CCCCCCCCCCCCSC(=N)N | 2.46 | 5.85 | 8.4 | 26.1 | 15.3 | 33.9 | 2.35 | 5.55 | 9.13 | 23 | 16.4 | 32.3 | 3.42 | 13.4 | 12.9 | 29.5 | 17.4 | 33.5 | 12.6 | 28.2 |
| c1ccc(-c2nc(-c3ccccc3)c(-c3ccccc3)[nH]2)cc1 |  | > 57 |  | 36.5 |  | > 100 |  | > 100 |  | > 100 |  | > 100 |  | > 100 |  | > 100 |  | > 100 |  | > 100 |
| NC1=NC(c2ccc(Cl)cc2)C2=C(N1)/C(=C/c1ccc(Cl)cc1)CCC2 (stereo not given) | 9.47 | 57 | 5.95 | > 81.5 | 9.42 | 29.7 | 5.71 | 25.8 | 7.82 | 56.3 | 27.4 | 86.8 | 12.2 | 29.8 | 7.79 | 35 | 23.5 | > 100 | 5.51 | 12.9 |
| Cn1cc(-c2cnc3ccc4ccc(CS(=O)(=O)NCc5ccccn5)cc4c(=O)c3c2)cn1 | 9.09 | 52.5 | 9.08 | > 93.8 | 27 | > 100 | 3.61 | > 100 | 31.3 | > 100 | 21.6 | > 83.1 | 15.7 | 49.7 | 25.2 | > 100 | 26.5 | > 100 | 11.3 | 24 |
| COc1cccc(/C=C/c2cnc3ccccc3n2)c1OC |  | 68.1 |  | > 100 |  | > 100 |  | > 100 |  | > 100 |  | > 100 |  | > 100 |  | > 100 |  | > 100 |  | 58.3 |
| CCOC(=O)/C=C/C(C(=O)/C=C/c1ccc(O)c(OC)c1)=C(O)\C=C\c1ccc(O)c(OC)c1 | 4.27 | > 100 | 3.62 | > 100 | 1.98 | 6.68 | 14.6 | 47 | 12.8 | > 100 | 5.3 | 29.2 | 20 | 54.4 | 4.84 | 24.5 | 8.07 | 25.4 | 2.22 | 6 |
| NS(=O)(=O)c1cccc(N=Cc2c(O)[nH]c3ccccc23)c1 | > 25 | > 25 | > 25 | > 25 | > 25 | > 25 | > 25 | > 25 | > 25 | > 25 | > 17.7 | > 25 | > 25 | > 25 | > 25 | > 25 | > 18.5 | > 25 | > 25 | > 25 |
| COc1ccc(Cl)cc1NC(=O)C(Br)C(Br)C(=O)O (stereo not given) | 6.78 | > 100 | 2.9 | > 100 | 21.7 | 47.7 | 38.9 | > 100 | 13.4 | > 100 | 6.59 | 28 | 38 | > 100 | > 74.3 | > 100 | > 100 | > 100 | 2.39 | 7.1 |
